In patent US20160367578A1, “METHODS AND COMPOSITIONS FOR ERADICATING LEUKEMIC CELLS” (priority 2013, published 2016):

Assays:
[1] = tested on: human leukemic cancer stem and progenitor cells (THP1, HL60, U937); test: Colony formation assay (CFU-C) on human leukemic cell lines; format: cell-based
[2] = tested on: primary MLL-AF9 cells; test: Differentiation assay, Gr-1 and Mac-1 expression in primary MLL-AF9 cells; format: cell-based, mouse; design: dose or concentration left out as unconfirmed; conditions: CBX for 16 hours; for differentiation of MLL-AF9 cells: Gr-1/Mac-1 expression
Procedure: Cell viability was determined by % of 7AAD-negative cells, in FACS analysis. (*p<0.01).
MLL-AF9 AML cells are undifferentiated myeloid progenitors that express both Gr-1 and Mac-1 antigens, whereas mature myeloid cells express either Gr-1 (granulocytes) or Mac-1 (macrophages).

[3] = tested on: MLL-AF9 cells; test: MLL-AF9 viability under chemotherapy with or w/o MS-5 stromal layer, transwell inserts and CBX (7AAD FACS); format: cell-based, mouse
Excerpt: Viability was detected via GFP expression and 7AAD exclusion.
To test this hypothesis, we evaluated the response of MLL-AF9 leukemic cells to chemotherapy in vitro, with and without supporting bone marrow stromal cells using time-lapse video microscopy combined with flow cytometry. […] MS-5 are murine bone-marrow stromal cells that were previously shown to support hematopoietic stem and progenitor cells (Itoh, et al., Experimental Hematology 21, 145-153 (1989) and Schajnovitz, et al., Nature Immunology 12, 391-8 (2011)). […] In order to distinguish between Stromal-leukemic (heterotypic) interactions and leukemic-leukemic (homotypic) interactions, we separated the MLL-AF9 from the stroma by transwell inserts, to restrict heterotypic interactions while allowing homotypic interactions.
Since adhesion interactions of hematopoietic cells are commonly accompanied with intercellular communication, we then tested the potential role of gap junctions activity in drug resistance. Gap junction intercellular channels, which are homo- and hetero-hexamers of connexin proteins, facilitate intercellular communication between contacting cells via the passage of secondary messengers, such as calcium and cAMP^17.

[4] = tested on: MLL-AF9 leukemia; test: MLL-AF9 leukemia in non-irradiated mice, intraperitoneal CBX with or w/o chemotherapy (survival, IVIS, flow cytometry); format: in vivo, mouse
Procedure: Chemo: cytarabine (100 mg/kg) and doxorubicin (3 mg/kg) to the subject for a period of 3 days, followed by administering cytarabine alone (100 mg/kg) to the subject for a period of 2 days.
Leukemia was induced in mice by intravenously injecting 1 million live MLL-AF9 leukemic cells (expressing GFP and luciferase) into non-irradiated recipients.
We first studied the immediate response of AML cells to induction chemotherapy in a mouse model of human MLL-AF9 leukemia. MLL-AF9 is a fusion protein, encoded by the t(9; 11)(p22; q23) translocation (Krivtsov, et al. 2006 and Sykes, et al., Cell 146, 697-708 (2011)), present in leukemic blasts derived from patients with AML and is associated with poor prognosis (Schoch, et al., Blood 102, 2395-402 (2003)). In order to generate primary MLL-AF9 leukemic cells for our experiments, we introduced the MLL-AF9 oncogene via retroviral transduction into lineage depleted bone marrow cells from B6.SJL mice, as depicted in FIG. 1A. Sorted GFP positive cells were then intravenously injected into sub-lethally irradiated C57B16 recipients and MLL-AF9 GFP-positive leukemic cells were harvested 3 months later, at a terminal stage of disease. In order to synchronize the timing of the treatment and to visualize disease progression, we transduced primary MLL-AF9 GFP-positive cells with Luciferase lentivirus. Then, we selected Luciferase expressing cells with antibiotics and transplanted 1 million double positive leukemic cells into non-irradiated recipients and monitored disease progression by whole body bioluminescence imaging (FIGS. 1A and 1B).
1 week after treatment, mice were imaged and then sacrificed to evaluate treatment outcome.

[5] = tested on: human AML cell line HL60; test: Neutrophil differentiation (CD66b+/CD14-) by FACS in HL60; format: cell-based; conditions: HL60, 16 hours
[6] = tested on: Mac1 (CD11b, integrin αm) in MLL-AF9 cells; test: Mac1 expression in CBX treated mice leukemic cells; format: cell-based, mouse; conditions: 7AAD-negative MLL-AF9 cells undergoing apoptosis
[7] = tested on: MLL-AF9 leukemic cells; test: Apoptosis of MLL-AF9 leukemic cells (7AAD-negative, annexin-V positive); format: cell-based, mouse; design: apoptosis of leukemic cells, kinetics: dose or concentration left out as unconfirmed
Procedure: Rate of proliferation for cell populations used is as follows: MLL-AF9: 3 divisions/24 hours; myeloblasts: 3 divisions/24 hours, eLKS: 7 divisions/24 hours.
The informational material can include instructions to administer the gap junction blocker and/or agents described herein in a suitable manner, e.g., in a suitable dose, dosage form, or mode of administration. […] The informational material can include instructions for selecting a suitable subject, e.g., a human, e.g., a human suffering from relapsed or refractory acute myeloid leukemia. The informational material of the kits is not limited in its form. In many cases, the informational material, e.g., instructions, is provided in printed matter, e.g., a printed text, drawing, and/or photograph, e.g., a label or printed sheet. However, the informational material can also be provided in other formats, such as Braille, computer readable material, video recording, or audio recording. In another embodiment, the informational material of the kit is a link or contact information, e.g., a physical address, email address, hyperlink, website, or telephone number, where a user of the kit can obtain substantive information about the modulator and/or its use in the methods described herein. Of course, the informational material can also be provided in any combination of formats.

[8] = tested on: gap junctions; conditions: 100 μM; cited from earlier work
[9] = tested on: Mac1 in human leukemic cell lines U937, HL60 and THP1; test: Myelo-marker flow cytometry in CBX-treated human leukemic cell lines; format: cell-based; conditions: human leukemias, CBX 16 h
Excerpt: FIGS. 34A-34D are bar graphs quantifying myelo-markers CD11b (FIG. 34A), CD14+ (FIG. 34B), CD66b+ (FIG. 34C), and CD66+/CD14+ (FIG. 34D) in CBX-treated primary normal human leukocytes as compared to CBX-treated human leukemic cell lines U937, HL60 and THP1.

[10] = tested on: MLL-AF9 cells (murine leukemic cancer stem cells); test: Colony formation assay (CFU-C) on MLL-AF9 cells; format: cell-based, mouse
[11] = tested on: normal bone marrow mononuclear cells (BM-MNC); test: Normal bone marrow mononuclear cells in 1:1 mixture with MLL-AF9 cells after CBX; format: cell-based, mouse; conditions: CBX vs PBS

CC1(C)[C@@H](OC(=O)CCC(=O)O)CC[C@]2(C)[C@H]3C(=O)C=C4[C@@H]5C[C@@](C)(C(=O)O)CC[C@]5(C)CC[C@@]4(C)[C@]3(C)CC[C@@H]12 [CBX, Carbenoxolone]
effect on human leukemic progenitors (CFU-C) ([1]; CBX 100 μM): eradicates human leukemic progenitors | effect on human leukemic cancer stem and progenitor cells (CFU-C) ([1]; increasing concentrations): eradicates human leukemic cancer stem and progenitor cells | toxicity to MLL-AF9 cells [2]: not toxic to the cells | differentiation of MLL-AF9 cells [2]: induces their differentiation into mature granulocytes | differentiation of MLL-AF9 cells ([2]; listed as carbenoxolone): promotes differentiation of AML cells into short-lived granulocytes | stroma-mediated drug resistance ([3]; 25 nM cytarabine and 10 nM doxorubicin as chemo, 16 hours): overcomes stroma-mediated drug resistance | eradication ([3]; co-cultures separated with transwell inserts, CBX + chemotherapy): more than 90% | MLL-AF9 cells eradicated ([3]; coculture with MS-5, 100 μM CBX 20 minutes before induction chemotherapy): ~90% | leukemia status 1 week after treatment (luciferase imaging, flow cytometry) ([4]; 25 mg/kg CBX 24 hours before and throughout 5-days induction chemotherapy): entirely leukemia free | survival ([4]; Carbenoxolone 20 mg/kg in combination with chemotherapy, from Day 27): prolonged survival | survival ([4]; Carbenoxolone alone, 20 mg/kg 3 or 6 days from Day 27, or 10/20/30 mg/kg ascending from Day 68): prolonged survival | survival ([4]; IP, 20 mg/kg for 6 days from day 27 (with chemo arm) or 10/20/30 mg/kg ascending from day 68): prolonged survival | survival ([4]; IP, 50 mg/kg 6 days beginning at day 27): prolonged survival | neutrophil differentiation (CD66b+/CD14−) [5]: induces rapid (within 16 hours) neutrophil differentiation | Mac1 (CD11b) expression [6]: downregulated | apoptosis of MLL-AF9 leukemic cells ([7]; 6, 12 and 20 hours): rapidly induces apoptosis | cell cycle dependence of CBX-induced leukemia apoptosis ([7]; 4 h, 1:1 mixture with highly proliferating normal myeloblasts or expanded LKS cells): not cell cycle dependent | apoptosis of leukemic cells in 1:1 mixture with BM-MNC ([7]; CBX vs PBS control, 4h): induces apoptosis of leukemic cells | apoptosis of leukemic cells, kinetics ([7]; exposure of about […] μM): selective apoptosis within hours | block of cell-cell communication [8]: efficiently blocks cell-cell communication | cell viability [8]: without affecting cell viability | Mac1 expression [9]: downregulated | effect on malignant vs. normal immature stem and progenitor cells (CFU-C) ([10]; CBX at greater than or equal to 50 μM): differential effect | effect on murine leukemic cancer stem cells (CFU-C) ([10]; increasing concentrations of carbenoxolone): eradicates murine leukemic cancer stem cells | replenishment of normal healthy cells [11]: enhances the replenishment of normal healthy cells
